According to ChEMBL document CHEMBL2046272, “Ligand Promiscuity between the Efflux Pumps Human P-Glycoprotein and S. aureus NorA” (ACS Med Chem Lett, 2012):
Converted amounts (≈) assume the structure as drawn.

Tests used:
[1] = biological target: T1, MDR1 (P-glycoprotein, ABCB1) (Homo sapiens, UniProt P08183); assay: in vitro
Description: Inhibition of human recombinant MDR1 expressed in mouse L5178Y cells assessed as inhibition of rhodamine-123 efflux at 10^-4 M preincubated for 10 mins measured after 20 mins by FACS analysis

[2] = biological target: T1, MDR1 (P-glycoprotein, ABCB1); assay: Inhibition of human recombinant MDR1 expressed in mouse L5178Y cells assessed as inhibition of rhodamine-123 efflux at 10^-5 M preincubated for 10 mins measured after 20 mins by FACS analysis; type: cell-based; settings: mouse L5178Y cells expressing human recombinant MDR1, probe rhodamine-123
[3] = biological target: T2, Quinolone resistance protein NorA (Staphylococcus aureus) (UniProt P0A0J7); settings: SA-1199B, at 50 µM
T2 sequence (whole entry): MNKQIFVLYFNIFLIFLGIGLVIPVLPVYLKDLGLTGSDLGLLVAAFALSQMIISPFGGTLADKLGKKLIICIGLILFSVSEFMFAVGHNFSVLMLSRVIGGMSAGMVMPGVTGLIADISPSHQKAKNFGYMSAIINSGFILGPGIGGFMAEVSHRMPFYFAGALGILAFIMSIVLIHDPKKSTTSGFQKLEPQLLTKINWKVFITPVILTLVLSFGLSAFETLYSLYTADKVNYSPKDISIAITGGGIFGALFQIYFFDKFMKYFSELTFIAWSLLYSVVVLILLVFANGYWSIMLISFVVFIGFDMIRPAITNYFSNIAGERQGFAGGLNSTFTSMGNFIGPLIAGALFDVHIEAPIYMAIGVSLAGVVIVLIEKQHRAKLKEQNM
Description: Inhibition of norA-mediated ethidium bromide efflux in Staphylococcus aureus SA-1199B harboring grlA A116E mutant at 50 uM after 5 mins by fluorometric analysis

Staphylococcus aureus = assay: microbe, parasite or virus in culture; type: functional; settings: SA-1199B
Description: Antibacterial activity against Staphylococcus aureus SA-1199B harboring grlA A116E mutant by microdilution techniques

[4] = mouse L5178Y cells expressing human recombinant MDR1, probe rhodamine-123

With `Cn1cccc1-c1nc2cc(NC(=O)c3ccccc3)ccc2[nH]1` as the molecule, how does the inhibition at 20 min, 100 µM [1, 4] read?
Its inhibition at 20 min, 100 µM is 1.6%.

For `Cc1ccc(S(=O)(=O)Nc2ccc3nc(-c4cccn4C)[nH]c3c2)cc1`, which inhibition at 20 min, 100 µM [1, 4] is on record?
Its inhibition at 20 min, 100 µM is 4.3%.

With `O=C1NC(=O)/C(=C/c2ccc(-c3cc(C(=O)O)ccc3Cl)o2)S1` as the molecule, how does the inhibition at 20 min, 100 µM [1, 4] read?
Its inhibition at 20 min, 100 µM is 2.6%.

With `C[C@@H](NCc1cccc(OCc2ccccc2)c1)[C@@H](O)c1ccccc1` as the molecule, how does the inhibition at 20 min, 10 µM [2] read?
The inhibition at 20 min, 10 µM was 7.8%.

With `CC[C@H]1CCc2nc(SCc3ccc(C(=O)O)cc3)c(C#N)c(C(F)(F)F)c2C1` as the molecule, how does the inhibition at 20 min, 10 µM [2] read?
Its inhibition at 20 min, 10 µM is 0.6%.

With `CC[C@H](C)N1C(=O)S/C(=C/c2ccc(-c3cc(C(=O)O)ccc3Cl)o2)C1=O` as the molecule, how does the inhibition at 20 min, 10 µM [2] read?
The inhibition at 20 min, 10 µM was 0.7%.

`Cc1ccc(S(=O)(=O)Nc2ccc3c(c2)ncn3-c2ccccc2)cc1` was tested. Which inhibition at 20 min, 100 µM [1, 4] did it give?
The inhibition at 20 min, 100 µM was 2.3%.

`Cc1ccc(S(=O)(=O)Nc2ccc3c(c2)nc(C)n3Cc2ccccc2)cc1` was tested. Which inhibition at 20 min, 100 µM [1, 4] did it give?
Its inhibition at 20 min, 100 µM is 21.7%.

With `c1ccc(CCN(Cc2ccccc2)Cc2cccc(OCc3ccccc3)c2)cc1` as the molecule, how does the inhibition at 20 min, 100 µM [1, 4] read?
Its inhibition at 20 min, 100 µM is 2.2%.

`COc1cccc(CNC(C)C(O)c2ccccc2)c1` (configuration not stated) was tested. Which inhibition at 20 min, 100 µM [1, 4] did it give?
Its inhibition at 20 min, 100 µM is 2.1%.

Which inhibition at 20 min, 100 µM [1, 4] does the source give for `N#Cc1c(C(F)(F)F)cc(Cc2ccccc2)nc1SCc1ccc(C(=O)O)cc1` here?
The inhibition at 20 min, 100 µM was 2.6%.

With `N#Cc1c(SCc2ccc(Cl)nc2)nc2c(c1C(F)(F)F)CCCC2` as the molecule, how does the inhibition at 20 min, 100 µM [1, 4] read?
The inhibition at 20 min, 100 µM was 20.4%.

Which inhibition at 20 min, 10 µM [2] does the source give for `CCC(C)N1C(=O)S/C(=C\c2ccc(-c3cc(C(=O)O)ccc3Cl)o2)C1=O` (configuration not stated) here?
The inhibition at 20 min, 10 µM was 1.7%.

For `CCC(C)N1C(=O)S/C(=C\c2ccc(N3CCCC3)o2)C1=O` (configuration not stated), which inhibition at 20 min, 100 µM [1, 4] is on record?
The inhibition at 20 min, 100 µM was 11.3%.

`CCCOc1ccc(-c2cc(=O)c3ccccc3n2C)cc1` was tested. Which inhibition at 20 min, 100 µM [1, 4] did it give?
Its inhibition at 20 min, 100 µM is 1.9%.

Which inhibition at 20 min, 10 µM [2] does the source give for `CCN(CC)CCOc1ccc(-c2cc(=O)c3ccccc3n2C)cc1` here?
Its inhibition at 20 min, 10 µM is 2.6%.

For `CN(C)CCOc1ccc(-c2cc(=O)c3ccccc3n2C)cc1`, which inhibition at 20 min, 100 µM [1, 4] is on record?
The inhibition at 20 min, 100 µM was 3.2%.

How did the inhibition at 20 min, 100 µM [1, 4] turn out when `CCOC(=O)c1cn(C2CC2)c2cc(N3CCC4=C(C3)/C(=N/O)C(C)CS4)c(N)cc2c1=O` (configuration not stated) was run?
Its inhibition at 20 min, 100 µM is 40.6%.

How did the inhibition at 20 min, 100 µM [1, 4] turn out when `CCOC(=O)c1cn(C2CC2)c2cc(N3CCC4=C(C3)/C(=N/OC)C(C)CS4)c(N)cc2c1=O` (configuration not stated) was run?
Its inhibition at 20 min, 100 µM is 16.8%.

How did the inhibition at 20 min, 100 µM [1, 4] turn out when `COc1ccc(C2=Nc3ccccc3SC2)cc1OC` was run?
The inhibition at 20 min, 100 µM was 44.1%.

How did the inhibition at 20 min, 100 µM [1, 4] turn out when `COc1cc(C2=Nc3ccccc3SC2)cc(OC)c1OC` was run?
The inhibition at 20 min, 100 µM was 64.7%.

How did the inhibition [3] turn out when `C=C[C@H]1CN2CC[C@H]1C[C@@H]2[C@@H](O)c1ccnc2ccc(OC)cc12` was run?
Its inhibition is 31.5%.

`C=CCc1ccccc1OCC(O)CNC(C)C` (configuration not stated) [ALPRENOLOL] was tested. Which inhibition at 20 min, 100 µM [1, 4] did it give?
Its inhibition at 20 min, 100 µM is 5%.

Which results are given for `CCOC(=O)C1=C(COCCN)NC(C)=C(C(=O)OC)C1c1ccccc1Cl` (configuration not stated) [AMLODIPINE]?
inhibition [3]: 60.6%; inhibition at 20 min, 10 µM [2]: 52.8%

For `CCN(CC)CCCN(c1ccccc1)C1Cc2ccccc2C1` [APRINDINE], which inhibition at 20 min, 100 µM [1, 4] is on record?
Its inhibition at 20 min, 100 µM is 16%.

What about the inhibition [3] of the same molecule?
Its inhibition is 51.6%.

How did the inhibition at 20 min, 100 µM [1, 4] turn out when `O=C1CCc2ccc(OCCCCN3CCN(c4cccc(Cl)c4Cl)CC3)cc2N1` [ARIPIPRAZOLE] was run?
The inhibition at 20 min, 100 µM was 99%.

And the inhibition [3]?
Its inhibition is 92.3%.

And the MIC (Staphylococcus aureus)?
The MIC was over 100 µg/mL.

With `COc1ccc(CCN2CCC(Nc3nc4ccccc4n3Cc3ccc(F)cc3)CC2)cc1` [ASTEMIZOLE] as the molecule, how does the inhibition [3] read?
Its inhibition is 80.6%.

What about the MIC (Staphylococcus aureus) of the same molecule?
Its MIC is 100 µg/mL (≈ 218 µM).

And the inhibition at 20 min, 10 µM [2]?
Its inhibition at 20 min, 10 µM is 12.8%.

Which results are given for `CC(C)(C)c1ccc(C(=O)CCCN2CCC(OC(c3ccccc3)c3ccccc3)CC2)cc1` [EBASTINE]?
inhibition [3]: 88.3%; MIC (Staphylococcus aureus): > 100 µg/mL

Which results are given for `CN(C)C(=O)C(CCN1CCC(O)(c2ccc(Cl)cc2)CC1)(c1ccccc1)c1ccccc1` [LOPERAMIDE]?
inhibition [3]: 77.7%; MIC (Staphylococcus aureus): > 100 µg/mL; inhibition at 20 min, 10 µM [2]: 4.5%

Which inhibition at 20 min, 100 µM ([1]; l5178y) does the source give for `C=C[C@H]1C[N@@]2CC[C@H]1C[C@@H]2[C@@H](O)c1ccnc2ccc(OC)cc12` [QUINIDINE] here?
Its inhibition at 20 min, 100 µM is 21.1%.

Which results are given for `CCOc1cc(CC(=O)N[C@@H](CC(C)C)c2ccccc2N2CCCCC2)ccc1C(=O)O` [REPAGLINIDE]?
inhibition at 20 min, 100 µM [1, 4]: 35%; inhibition [3]: 14%

For `O=C1NCCN1CCN1CCC(c2cn(-c3ccc(F)cc3)c3ccc(Cl)cc23)CC1` [SERTINDOLE], which inhibition at 20 min, 100 µM [1, 4] is on record?
The inhibition at 20 min, 100 µM was 74%.

And the inhibition [3]?
The inhibition was 81.8%.

And the MIC (Staphylococcus aureus)?
The MIC was 25 µg/mL (≈ 56.7 µM).

With `O=C1Cc2cc(CCN3CCN(c4nsc5ccccc45)CC3)c(Cl)cc2N1` [ZIPRASIDONE] as the molecule, how does the inhibition at 20 min, 100 µM [1, 4] read?
The inhibition at 20 min, 100 µM was 19%.

What about the inhibition [3] of the same molecule?
Its inhibition is 86.6%.

And the MIC (Staphylococcus aureus)?
Its MIC is over 100 µg/mL.
